For 4 compounds, minimal effective dose results are on record in ChEMBL document CHEMBL1124183, “Conformations of complexes between mitomycins and decanucleotides. 3. Sequence specificity, binding at C-10, and mitomycin analogues” (1988).

The species named for the test is Mus musculus. Kind of test: Minimum effective dose (MED) of compound against P388 Leukemia in mice was determined. The class given is functional. The settings on record: read-out: MED.

Each structure is given as a SMILES string.

Consider `CO[C@@]12C(COC(N)=O)C3=C(C(=O)C(C)=C(NCCS)C3=O)N1CC1NC12` (some centres undefined), for which the minimal effective dose turned out to be 0.2 mg/kg. In the case of `CO[C@@]12C(COC(N)=O)C3=C(C(=O)C(C)=C(NC=[N+](C)C)C3=O)N1CC1NC12` (some centres undefined) it was 0.05 mg/kg; in that of `CO[C@@]12C(COC(N)=O)c3c(O)c(N=C4C=CC(=O)C=C4)c(C)c(O)c3N1CC1NC12` (some centres undefined), 0.1 mg/kg; in that of `CO[C@@]12[C@H](COC(N)=O)C3=C(C(=O)C(C)=C(N)C3=O)N1C[C@@H]1N[C@@H]12` [MITOMYCIN], 0.2 mg/kg.
